The experiment deals with Melanin-concentrating hormone receptor 1 (Homo sapiens) (UniProt Q99705). The experiment can be described thus: antagonist activity at MCH receptor 1 – cell-based, fluorescence, set 4, counter-screen for GPR7 antagonist project, dose response (AID 588568). Particulars: MCHR1-expressing cells, fluorescence antagonist assay. On the technique in general: Counterscreens check selectivity or assay interference.

Activity calls are given as the source filed them. How the calls were made is not given here.

In general, IC50 refers to the concentration that inhibits the measured activity by half.

In the case of `COc1ccc(Oc2c(Cl)cnn(C(CCl)c3cccc4ccccc34)c2=O)cc1` (stereo not drawn), the IC50 (run 1) was > 20 µM (inactive).

With `COc1ccc(Oc2c(Cl)c(Br)nn(Cc3ccccc3C)c2=O)cc1`, the half-inhibitory concentration (IC50) (run 1) is 1.79 µM.

With `COc1ccc(Oc2c(Cl)cnn(Cc3cccc(C(F)(F)F)c3)c2=O)cc1`, the IC50 (run 1) is 4.7 µM.

Regarding `CCN(CC)C(=O)C(c1ccccc1Cl)n1ncc(Cl)c(Oc2ccc(OC)cc2)c1=O` (stereo not drawn), the IC50 (run 1) is > 11.5 µM (inactive).

For `CCOc1ccc(Cn2ncc(Cl)c(Oc3ccc(OC)cc3)c2=O)cc1C#N`, under “run 1”, the half-inhibitory concentration (IC50) was 9.37 µM.

As to `COc1ccc(Oc2c(Cl)cnn(Cc3c(C)cc(C)cc3C)c2=O)cc1`, the IC50 (run 1) was 7.5 µM.

For the compound `COc1ccc(Oc2c(C#N)cnn(-c3ccc(Br)cc3)c2=O)cc1`, under “run 1”, the IC50 result was “inactive”.

As for `COc1ccc(Oc2c(Cl)cnn(-c3ccc(Cl)cc3)c2=O)cc1`, the IC50 entry (run 1) is “inactive”.

Regarding `Cc1cc(C)cc(Cn2ncc(Cl)c(Oc3ccc(CO)cc3)c2=O)c1`, under “run 1”, the IC50 was 3.02 µM.

In the case of `COc1ccc(Cn2ncc(Cl)c(Oc3ccc(OC)cc3)c2=O)cc1`, under “run 1”, the IC50 result was “inactive”.

As to `COc1ccc(Oc2c(Cl)cnn(-c3ccc(F)cc3)c2=O)cc1`, the IC50 (run 1) was 7.84 µM.

For `COc1cccc(Oc2c(Cl)cnn(Cc3cccc4ccccc34)c2=O)c1`, the half-maximal inhibitory concentration (IC50) (run 1) was 8.9 µM.

Consider `COc1ccc(Oc2c(Cl)cnn(C(C(=O)OC(C)C)c3ccccc3Cl)c2=O)cc1` (stereo not drawn), for which the IC50 (run 1) was > 11.5 µM (inactive).

As to `COC(=O)c1ccc(Oc2c(Cl)cnn(Cc3cccc4ccccc34)c2=O)cc1`, the IC50 (run 1) was > 20 µM (inactive).

Take `COc1ccc(Oc2c(Cl)cnn(-c3ccc(Br)cc3)c2=O)cc1`: for the setting “run 1”, the IC50 is 6.4 µM.

As to `COc1ccc(Nc2ccnn(Cc3cccc4ccccc34)c2=O)cc1`, the IC50 (run 1) was > 20 µM (inactive).

As to `COc1ccc(Oc2c(Cl)cnn(Cc3ccc(Br)c4ccccc34)c2=O)cc1`, the IC50 (run 1) is > 20 µM (inactive).

`COc1ccc(Oc2c(Cl)cnn(Cc3cc(Cl)ccc3Cl)c2=O)cc1`: the IC50 (run 1) is 4.29 µM.

As for `COc1ccc(Oc2c(-c3ccc(C)cc3)c(-c3ccc(C)cc3)nn(Cc3ccccc3C)c2=O)cc1`, where the note is “run 1”, the IC50 was > 20 µM (inactive).

Take `CCOC(=O)C(c1ccccc1Cl)n1ncc(Cl)c(Oc2ccc(OC)cc2)c1=O` (stereo not drawn): the concentration for half-maximal inhibition (IC50) (run 1) was 3.26 µM.

In the case of `COc1ccc(Oc2c(Cl)cnn(Cc3ccc(-c4ccccc4)cc3)c2=O)cc1`, the IC50 (run 1) was > 20 µM (inactive).

With `Cc1ccccc1Cn1ncc(Cl)c(Oc2ccc(CO)cc2)c1=O`, the IC50 (run 1) was 4.92 µM.

Consider `CC(C)c1ccc(-n2ncc(Cl)c(Oc3ccc(CO)cc3)c2=O)cc1`, for which the IC50 (run 1) was 4.73 µM.

For `O=C(O)c1ccc(Oc2c(Cl)cnn(Cc3cccc4ccccc34)c2=O)cc1`, where the note is “run 1”, the IC50 is > 20 µM (inactive).

Regarding `COc1ccccc1CNC(=O)c1cnn(-c2ccc(Cl)cc2)c1C(F)(F)F`, the IC50 (run 1) is 7.23 µM.

In the case of `COc1ccc(Oc2c(Cl)c(-c3ccsc3)nn(Cc3ccccc3C)c2=O)cc1`, the IC50 (run 1) is 8.04 µM.

On to `COc1ccc(Oc2c(Cl)cnn(-c3ccc(OC)cc3)c2=O)cc1`, for which, under “run 1”, the IC50 result was “inactive”.

Consider `COc1ccc(Oc2c(Cl)cnn(CC3CCCC3)c2=O)cc1`, for which, under “run 1”, the IC50 entry is “inactive”.

For `COc1ccc(Oc2c(C)cnn(Cc3cccc4ccccc34)c2=O)cc1`, under “run 1”, the IC50 was 5.41 µM.

As to `COc1ccc(Oc2c(Cl)cnn(Cc3cccc(C)c3)c2=O)cc1`, the IC50 (run 1) was 4.7 µM.

For `COc1ccc(Oc2c(Cl)c(-c3ccccc3C)nn(Cc3ccccc3C)c2=O)cc1`, where the note is “run 1”, the half-maximal inhibitory concentration (IC50) was 1.79 µM.

On to `COc1ccc(Oc2c(-c3ccccc3C)c(-c3ccccc3C)nn(Cc3ccccc3C)c2=O)cc1`, for which the IC50 entry (run 1) was “inactive”.

With `O=c1c(Oc2ccc(CO)cc2)c(Cl)cnn1Cc1ccc2ccccc2c1`, the half-maximal inhibitory concentration (IC50) (run 1) is 2.23 µM.

For `COc1ccc(Oc2c(Cl)cnn(Cc3ccc(Cl)cc3)c2=O)cc1`, the IC50 (run 1) was 3.2 µM.

On to `O=Cc1ccc(Oc2c(Cl)cnn(Cc3cccc4ccccc34)c2=O)cc1`, for which, under “run 1”, the IC50 is 7.33 µM.

Take `CCc1cccc(-n2ncc(Cl)c(Oc3ccc(OC)cc3)c2=O)c1`: under “run 1”, the IC50 is 2.31 µM.

As for `COc1ccc(Oc2ccn(-c3ccc(C)cc3)c(=O)c2Cl)cc1`, the IC50 (run 1) is 2.79 µM.

As to `C=Cc1cnn(Cc2cccc3ccccc23)c(=O)c1Oc1ccc(OC)cc1`, where the note is “run 1”, the IC50 was 1.69 µM.

Take `COc1cccc(Oc2c(Cl)cnn(-c3cc(C)cc(C)c3)c2=O)c1`: the IC50 (run 1) is > 20 µM (inactive).

As for `COc1ccc(Oc2c(Cl)cnn(-c3ccc(C)c(C)c3)c2=O)cc1`, the IC50 reads like this: (run 1) 9.47 µM; (run 2) 3.99 µM.

For `COc1ccc(Oc2c(Cl)cnn(CCc3cccc4ccccc34)c2=O)cc1`, under “run 1”, the IC50 entry was “inactive”.

With `COc1ccc(Oc2c(Cl)cnn(Cc3ccc(C)c4ccccc34)c2=O)cc1`, the IC50 entry (run 1) was “inactive”.

Values taken from PubChem BioAssay AID588568 (The Scripps Research Institute Molecular Screening Center, 2011).
